Patent US6284799A, “Cancer treatment” (priority 1996, dated 2001)
pIC50, pKd, pKi: −log10 of the molar value. Like-named read-outs stand apart in the source and are kept apart here. Values belong to the molecule of their own block, whether it stands above or below them.

Legend:
[1] = test system: concanavalin A-stimulated normal lymphocytes; experiment: proliferation of concanavalin A-stimulated normal lymphocytes; format: cell-based
C-3 fibrosarcoma cells = experiment: tumor promotion in mice injected with C-3 fibrosarcoma cells; format: in vivo, C3H mice; conditions: for tumor growth: C-3 fibrosarcoma, FIG. 7, FIG. 9; for animals with tumors by day 5: n=10 per group, no controls had tumors
Text: The experiments were blinded so that the individual measuring the first appearance of palpable tumor was unaware of the treatment group (saline control vs antidepressant drug; n=10 in each group),

HIC [2] = experiment: inhibition of histamine binding to HIC in microsomes; design: species or system rat
[3] = test system: phorbol myristate acetate (PMA)-induced platelet aggregation; experiment: PMA-induced platelet aggregation; format: cell-based; conditions: for pIC50: Platelet, read-out: IC50, antagonism of PMA-induced platelet aggregation
[4] = target: ^3 H-DPPE binding (HIC) in rat liver microsomes; experiment: competition for 3H-DPPE binding in liver microsomes
HIC [5] = experiment: competition for 3H-histamine binding to HIC in brain membranes; design: species or system rat; conditions: for pKi: rat cortical membranes
[6] = test system: MCF-7 human breast cancer cells; conditions: MCF7, 168 h, read-out: IC50 value, inhibit/kill growth of MCF-7 cells
[7] = test system: PMA-induced inflammation in skin; experiment: PMA-induced skin inflammation in DBA/2 mice; format: in vivo
Experimental: To investigate any effect of DPPE to increase PMA-induced inflammation in the same strain of mice (DBA/2), groups of 3 animals were shaved over the back and 48 hours later received a single topical application of […] PMA in acetone. The PMA-treated mice then received either saline (control) or DPPE (4 or 32 mg/kg at time 0 and 24 hours). Three animals painted with acetone served as vehicle controls. Forty-eight hours later, the various groups were sacrificed by CO2 asphyxiation, the skin carefully excised, pinned to paper strips to prevent, wrinkling, and immersed in formaldehyde. H and E-stained sections of skin were assessed for degree of inflammation.
Indeed, since tumor promotion requires the presence of inflammatory response, and can be blocked by agents which inhibit inflammation by definition, DPPE functions as a co-promoter with PMA.

[8] = clinically relevant doses to enhance chemotherapy, about 0.2-12 mg/kg; cited from earlier work
rat uterus = conditions: cited from earlier work
L5178Y lymphoma cells = experiment: tumor-promoting effect in DBA/2 mice inoculated subcutaneously with L5178Y lymphoma cells; format: in vivo
Text: A second group of 7 tumor cell-inoculated mice served as controls (saline injections, once daily×1). By day 14, 7/7 DPPE treated animals had palpable tumors as compared to 4/7 controls. At the end of 4 weeks, 6/7 controls had tumors with an aggregate surface area of 14.5 cm^2 (mean=2.1±0.8 cm^2 /animal), while 7/7 DPPE-treated animals had tumors with an aggregate surface area of 38.4 cm^2 (mean=5.5±0.7 cm^2 /animal). Thus, the tumor burden of DPPE-treatedanimals was approximately 2.5-fold greater than that of controls.

[9] = 1 mg/kg s.c. once daily x3, end of 4 weeks

Compound: CC(C)NC[C@H](O)COc1cccc2ccccc12 (racemic) [propanolol]
inhibition of lymphocyte proliferation / mitogenesis [1]: inhibits normal lymphocyte mitogenesis
tumor weight on Day 23 (C-3 fibrosarcoma cells; C-3 fibrosarcoma murine model, FIG. 7): significantly increased tumor weight

inhibition of histamine binding to HIC (HIC [2]): potent to inhibit histamine binding
Compound: COc1ccc(CCN2CCC(Nc3nc4ccccc4n3Cc3ccc(F)cc3)CC2)cc1 [Astemizole]
inhibition of lymphocyte proliferation / mitogenesis [1]: potent to inhibit
tumor growth (C-3 fibrosarcoma cells): potently stimulate the growth

pIC50 [3]: 4.70
pKi ([4]; rat liver microsomes, read-out: KI value, competition for [^3 H] DPPE binding): ~7.15
potency relative to DPPE in inhibiting histamine binding at HIC (HIC [5]; brain membranes): approximately three times more potent
potency relative to DPPE in HIC binding competition assays (HIC [5]; inhibiting normal cell proliferation and promoting malignant cell proliferation): two to four times that of DPPE
pKi (HIC [5]): 6.52
Compound: CCN(CC)CCOc1ccc(C(=O)c2ccc(F)cc2)cc1 [DFPE, N,N=diethyl-2-[4-(4'-fluorophenone)phenoxy] ethanamine]
potency relative to DPPE in antagonizing PMA-induced platelet aggregation [3]: approximately four times more potent
pIC50 [6]: 5.52

Compound: CCN(CC)CCOc1ccc(Cc2ccccc2)cc1 [DPPE, N,N-diethyl-2-[4-(phenylmethyl)-phenoxy] ethanamine]
pIC50 [3]: 4.10
inhibition of lymphocyte proliferation / mitogenesis [1]: inhibit
inflammatory response to PMA, high dose ([7]; 32 mg/kg (128 mg/M^2)): most intense inflammatory response
mitotic activity in the epithelial layer ([7]; 32 mg/kg, versus PMA and saline-treated groups): increased mitotic activity
inflammatory response to PMA ([7]; 4 or 32 mg/kg at time 0 and 24 hours, skin assessed at 48 hours, versus saline or acetone controls): significantly greater inflammatory response
serious toxic effects in humans [8]: does not cause serious toxic effects
antiestrogenic activity in vivo (rat uterus): antiestrogenic in vivo
effect on tamoxifen action in the rat uterus in vivo (rat uterus): augment the effects of tamoxifen
pKd ([4]; ^3 H-DPPE binding in liver microsomes): 7.19
animals with palpable tumors by day 14 (L5178Y lymphoma cells; 1 mg/kg (4 mg/M^2) s.c. once daily x3, day 14, n=7): 7/7
animals with tumors at the end of 4 weeks (L5178Y lymphoma cells; 1 mg/kg s.c. once daily x3, 4 weeks, n=7): 7/7
aggregate tumor surface area (L5178Y lymphoma cells; [9]): 38.4 cm^2
mean tumor surface area per animal (L5178Y lymphoma cells; [9]): 5.5±0.7 cm^2 /animal
tumor burden relative to controls (L5178Y lymphoma cells; end of 4 weeks, versus saline controls): approximately 2.5 fold
pKi (HIC [5]): 6.05
pIC50 [6]: 5.19

pKi ([4]; liver microsomes, FIG. 2, read-out: K1 to compete for ^3 H-DPPE binding): 5.00
Compound: CN(C)CCC=C1c2ccccc2CCc2ccccc21 [amitriptyline]
pIC50 ([1]; Lymphocyte, in the absence of cytotoxicity, FIG. 5, read-out: IC50, inhibition of proliferation): 4.70 to 5.00
animals with tumors by day 5 (C-3 fibrosarcoma cells): 4/10

Compound: CNCCC(Oc1ccc(C(F)(F)F)cc1)c1ccccc1 (stereo not shown) [fluoxetine]
animals with tumors by day 5 (C-3 fibrosarcoma cells): 4/10

Compound: CCOC(=O)N1CCC(=C2c3ccc(Cl)cc3CCc3cccnc32)CC1 [loratidine]
inhibition of lymphocyte proliferation / mitogenesis [1]: inhibited concanavalin A-stimulated mitogenesis
tumor growth (C-3 fibrosarcoma cells): potently promoted tumor growth
